Source: patent EP1527784B1, “Method for extracting antineoplastic components from Bupleurum scorzonerifolium and composition comprising lactones” (Buddhist Tzu Chi General Hospital, priority 2003, dated 2005)
Converted amounts (≈) assume the structure as drawn.

Columns and labels:
A549-T12 = assay: Annexin V-FLOUS / PI flow cytometry for apoptosis, Taxol-resistant cells; assay type: cell-based; details: Homo sapiens, 48 hours, untreated group 6.8%, read-out: ratio of apoptotic tumor cell
From the text: (§1) The following embodiments are described with Taxol-resistant tumor cell A549-T12 (passage cultured from lung cancer cell line A549 cells with low concentration of taxol) as an example to test the effect of BS-A and its pure compounds (these represent chaihulactone and chaihulactone analogues). Flow cytometry, cytotoxicity, and biomolecular examinations are adopted to estimate the mechanism of Bupleurum scorzonerifolium extracts on Taxol-resistant tumor cells.
FIGs. […] Among these figures, X-axis represents the fluorescent brightness of tumor cells with antibody Annexin V-FLOUS whereas Y-axis represents the fluorescent brightness of tumor cell with antibody PI. […] This indicates isochaihulactone has better induction for apoptosis of Taxol-resistant tumor cell line than other chaihulactone analogues.

A549 cells [1] = assay: Cell cycle analysis by flow cytometry (PI); assay type: cell-based, human; details: FIG. 4; concentration not given
Procedure: Furthermore, flow cytometry is employed to observe the changes in cell cycle before and after the addition of different extracts from Bupleurum scorzonerifolium to A549 cells. In figures 2A through to 2D, X-axis represents chromosome numbers (2N, 4N, etc.) of tumor cells in contact with the antibody, Y-axis represents the fluorescent brightness of Propidium Iodide (PI). It is clearly noted that before treatment lung cancer cell line A549 is mainly at stage of G0/G1, but when 60 µg/ml of BS-AE and 600 µg/ml of BS-ME are added to the tumor cells, the tumor cells are arrested at G2/M stage. This is particularly the case for BS-ME.

[2] = test system: human hepatoma cell line J5, ovarian cancer cell line OVCAR-3, human malignant glioblastoma cell line DBTRG-05MD, lung cancer cell line A549 and colorectal …; assay: MTT cytotoxicity screening of extracts and components on a tumor cell line panel; assay type: cell-based; details: MTT assay / drug screening; Table 1 cited but not given
Procedure: Each of the aforementioned heterocyclic compounds from each extract as well as the acetone crude extracts of Bupleurum scorzonerifolium are assayed to measure the antineoplastic activity. It was shown that majority of antineoplastic components of Bupleurum scorzonerifolium are retained in the BS-AE and BS-ME. The BS-HE and BS-CE hardly have any tumor-suppressing effects. Besides, the extracts can be further purified using chromatography method (e.g. low pressure liquid chromatography or high performance liquid chromatography (HPLC)), such that fractions are collected separately after each elution to obtain the pure compounds mentioned above.
Moreover, from chemical analysis of the main representative molecular structure of the eighth component, it was observed that the compound shares a common feature shown in formula (I) as having a γ-butyrolactone-centred heterocyclic compound with Z configuration or E configuration at carbon 2(5), or pharmacologically compatible salts, esters, ketones or their derivatives. [drawing 19] where the heterocyclic compound may have a 3R or 3S configuration, X can be N, O, S, or Se, andA, B can be selected from the following substituents: [drawing 20] where R1, R2, R3, R4, R5 can be selected from hydrogen atom, a halogen atom, a hydroxyl group, a sulfoxyl group, an amino group, a methoxyl group, and a nitro group. […]

β-tubulin = assay: Immunoblot of soluble and particular (polymerized) β-tubulin in A549 cells; assay type: cell-based, human; details: FIG. 7
A549-T12 cells = assay: MTT cytotoxicity assay on Taxol-resistant lung cancer cells; assay type: cell-based; details: Taxol-resistant human lung cancer cell line A549-T12; read-out: concentration that causes 50% growth inhibition (IC50)
From the text: On the other hand, when the BS-AE containing γ-butyrolactone heterocyclic compounds, such as isochaihulactone and BS-AE are applied on Taxol-resistant tumor cell line, for example, human lung cancer cell line A549-T12, they also show anti-tumor effects on the resistant tumor cells. […] Furthermore, the tumor-suppressing effects of those Bupleurum scorzonerifolium extracts after isolated by the extraction method of this invention are more prominent.
as §1
Furthermore, a lower dose (2-4 µg/ml) of isochaihulactone is required to induce apoptosis on A549-T12 cells than that of A549 cells (8-10 µg/ml).

p53 = assay: Western blotting of tumor suppressor p53; assay type: cell-based, human; details: A549 cells, FIG. 5, 1 day or 3 days
p21 = assay: Western blotting of tumor suppressor p21; assay type: cell-based, human; details: A549 cells, FIG. 5, 1 day or 3 days
A549 cells [3] = assay: Annexin V-FLOUS / PI flow cytometry for apoptosis; assay type: cell-based; details: Homo sapiens, 48 hours, untreated group 3.8%, read-out: proportion of cell death (apoptosis)
Procedure: In A549 cells, 20 µM of Isochaihulactone and 60 µg/ml of BS-AE are added to A549 cell line. After 48 hours of treatment, flow cytometry is utilized to detect the staining results between Annexin V-FLOUS and PI. In FIGs. 3A through to 3C, X-axis represents the fluorescent brightness of tumor cells with antibody Annexin V-FLOUS, and Y-axis represents the fluorescent brightness of tumor cells with antibody PI. From the diagrams, it was shown that the untreated group has only 3.8% of apoptosis, whereas A549 cells treated with Isochaihulactone and BS-AE has much higher proportion of cell death (about 30-40%).

tumor cells = details: in two years; initial treatment stage; cited from earlier work

COc1ccc(/C=C2\C(=O)OC[C@@H]2Cc2ccc3c(c2)OCO3)cc1OC [BS-15, Isokaerophyllin]
cytotoxicity at 8 µg/mL (A549-T12): 23.1%

COc1cc(/C=C2\C(=O)OC[C@@H]2Cc2ccc3c(c2)OCO3)cc(OC)c1OC [isochaihulactone, Isochaihulactone]
cell cycle stage of tumor cells (A549 cells [1]): arrest at the stage G2/M | cytotoxicity at 8 µg/mL (A549-T12): 30.6% | antineoplastic effect (comparison among extracts and components) [2]: most prominent anti-tumor effects | particular form (polymerized β-microtubule) (β-tubulin): increases | soluble form (non-polymerized β-microtubule) (β-tubulin): significantly diminishes | IC50 (A549-T12 cells): 2 to 4 µg/mL (≈ 5.02 to 10 µM) | expression level of tumor suppressor p53 (p53): increase in expression level | expression level of tumor suppressor p21 (p21): increase in expression level | cytotoxicity at 20 µM (A549 cells [3]): 30 to 40%

CC(=O)O[C@H]1C(=O)[C@@]2(C)[C@H]([C@H](OC(=O)c3ccccc3)[C@]3(O)C[C@H](OC(=O)[C@H](O)[C@@H](NC(=O)c4ccccc4)c4ccccc4)C(C)=C1C3(C)C)[C@]1(OC(C)=O)CO[C@@H]1C[C@@H]2O [Taxol, Paclitaxel]
improvement of survival rate of the patient (tumor cells): about 15%
